Measurements taken from patent US20230278972A1, “SUBSTITUTED HALOALKYL SULFONANILIDE HERBICIDES” (FMC Corporation, priority 2020, published 2023).

Legend:
Type in all cases: in vivo
[1] = system: ragweed (common ragweed, Ambrosia artemisiifolia); test: Test A preemergence, ragweed; details: Preemergence; for Ragweed plant response rating: 125 g ai/ha, visual injury on 0 to 100 scale (0 no effect, 100 complete control), approximately 10 days; for Plant response rating, Ragweed: 500 g ai/ha, 0 to 100 scale (0 no effect, 100 complete control)
Text: (§1) Seeds of plant species selected from barnyardgrass (Echinochloa crus-galli), kochia (Bassia scoparia), ragweed (common ragweed, Ambrosia artemisiifolia), Ryegrass, Italian (Italian ryegrass, Lolium multiflorum), Foxtail, Giant (giant foxtail, Setaria faberi), and pigweed (Amaranthus retroflexus) were planted into a blend of loam soil and sand and treated preemergence with a directed soil spray using test chemicals formulated in a non-phytotoxic solvent mixture which included a surfactant. At the same time, plants selected from these weed species and also wheat (Triticum aestivum), corn (Zea mays), blackgrass (Alopecurus myosuroides), and galium (catchweed bedstraw, Galium aparine) were planted in pots containing the same blend of loam soil and sand and treated with postemergence applications of test chemicals formulated in the same manner. Plants ranged in height from 2 to 10 cm and were in the one- to two-leaf stage for the postemergence treatment. […] A dash (-) response means no test result.

[2] = system: kochia (Bassia scoparia); test: Test A postemergence, kochia; details: Postemergence, 0 to 100 scale (0 no effect, 100 complete control); for Kochia plant response rating: visual injury vs untreated controls after approx. 10 days
Text: as §1

[3] = system: ragweed (common ragweed, Ambrosia artemisiifolia); test: Test A postemergence, ragweed; details: Postemergence, 0 to 100 scale (0 no effect, 100 complete control); for Ragweed plant response rating: visual injury vs untreated controls after approx. 10 days
Text: as §1

[4] = system: Ryegrass, Italian (Italian ryegrass, Lolium multiflorum); test: Test A postemergence, Ryegrass, Italian; details: Postemergence, 0 to 100 scale (0 no effect, 100 complete control); for Ryegrass, Italian plant response rating: visual injury vs untreated controls after approx. 10 days
Text: as §1

[5] = system: Ryegrass, Italian (Italian ryegrass, Lolium multiflorum); test: Test A preemergence, Ryegrass, Italian; details: Preemergence; for Ryegrass, Italian plant response rating: 125 g ai/ha, visual injury on 0 to 100 scale (0 no effect, 100 complete control), approximately 10 days; for Plant response rating, Ryegrass, Italian: 500 g ai/ha, 0 to 100 scale (0 no effect, 100 complete control)
Text: as §1

[6] = system: pigweed (Amaranthus retroflexus); test: Test A postemergence, pigweed; details: Postemergence, 0 to 100 scale (0 no effect, 100 complete control); for Pigweed plant response rating: visual injury vs untreated controls after approx. 10 days
Text: as §1

[7] = system: barnyardgrass (Echinochloa crus-galli); test: Test A preemergence, barnyardgrass; details: Preemergence; for Barnyardgrass plant response rating: 125 g ai/ha, visual injury on 0 to 100 scale (0 no effect, 100 complete control), approximately 10 days; for Plant response rating, Barnyardgrass: 500 g ai/ha, 0 to 100 scale (0 no effect, 100 complete control)
Text: as §1

[8] = system: galium (catchweed bedstraw, Galium aparine); test: Test A postemergence, galium; details: Postemergence, 0 to 100 scale (0 no effect, 100 complete control); for Galium plant response rating: visual injury vs untreated controls after approx. 10 days
Text: as §1

[9] = system: blackgrass (Alopecurus myosuroides); test: Test A postemergence, blackgrass; details: Postemergence, 0 to 100 scale (0 no effect, 100 complete control); for Blackgrass plant response rating: visual injury vs untreated controls after approx. 10 days
Text: as §1

[10] = system: corn (Zea mays); test: Test A postemergence, corn; details: Postemergence, 0 to 100 scale (0 no effect, 100 complete control); for Corn plant response rating: visual injury vs untreated controls after approx. 10 days
Text: as §1

[11] = system: Foxtail, Giant (giant foxtail, Setaria faberi); test: Test A postemergence, Foxtail, Giant; details: Postemergence, 0 to 100 scale (0 no effect, 100 complete control); for Foxtail, Giant plant response rating: visual injury vs untreated controls after approx. 10 days
Text: as §1

[12] = system: kochia (Bassia scoparia); test: Test A preemergence, kochia; details: Preemergence; for Kochia plant response rating: 125 g ai/ha, visual injury on 0 to 100 scale (0 no effect, 100 complete control), approximately 10 days; for Plant response rating, Kochia: 500 g ai/ha, 0 to 100 scale (0 no effect, 100 complete control)
Text: as §1

[13] = system: wheat (Triticum aestivum); test: Test A postemergence, wheat; details: Postemergence, 0 to 100 scale (0 no effect, 100 complete control); for Wheat plant response rating: visual injury vs untreated controls after approx. 10 days
Text: as §1

[14] = system: barnyardgrass (Echinochloa crus-galli); test: Test A postemergence, barnyardgrass; details: Postemergence, 0 to 100 scale (0 no effect, 100 complete control); for Barnyardgrass plant response rating: visual injury vs untreated controls after approx. 10 days
Text: as §1

[15] = system: Foxtail, Giant (giant foxtail, Setaria faberi); test: Test A preemergence, Foxtail, Giant; details: Preemergence; for Foxtail, Giant plant response rating: 125 g ai/ha, visual injury on 0 to 100 scale (0 no effect, 100 complete control), approximately 10 days; for Plant response rating, Foxtail, Giant: 500 g ai/ha, 0 to 100 scale (0 no effect, 100 complete control)
Text: as §1

[16] = 125 g ai/ha, visual injury approx. 10 days
[17] = 500 g ai/ha, visual injury, approx. 10 days

SMILES	Ragweed plant response rating [1]	Plant response rating, Ragweed [1]	Kochia plant response rating ([2]; 500 g ai/ha)	Ragweed plant response rating ([3]; 500 g ai/ha)	Ryegrass, Italian plant response rating ([4]; 500 g ai/ha)	Ryegrass, Italian plant response rating [5]	Plant response rating, Ryegrass, Italian [5]	Pigweed plant response rating ([6]; 500 g ai/ha)	Barnyardgrass plant response rating [7]	Plant response rating, Barnyardgrass [7]	Galium plant response rating ([8]; 500 g ai/ha)	Blackgrass plant response rating ([9]; 500 g ai/ha)	Corn plant response rating ([10]; 500 g ai/ha)	Foxtail, Giant plant response rating ([11]; 500 g ai/ha)	Kochia plant response rating [12]	Plant response rating, Kochia [12]	Wheat plant response rating ([13]; 500 g ai/ha)	Barnyardgrass plant response rating ([14]; 500 g ai/ha)	Foxtail, Giant plant response rating [15]	Plant response rating, Foxtail, Giant [15]	also measured
Cc1cc(C)c(C2=NOC3(C2)CC(C)OC(C)C3)cc1NS(=O)(=O)C(F)(F)F (single isomer, unassigned) [Compound 171]	80	90	70	90	80	100	100	80	90	100	90	80	80	90	70	90	60	90	100	100	Plant response rating, Kochia ([2]; 125 g ai/ha): 30; Plant response rating, Ragweed ([3]; 125 g ai/ha): 40; Plant response rating, Ryegrass, Italian ([4]; 125 g ai/ha): 80; Plant response rating, Pigweed ([6]; 125 g ai/ha): 60; Plant response rating, Galium ([8]; 125 g ai/ha): 60; Plant response rating, Blackgrass ([9]; 125 g ai/ha): 40; Plant response rating, Corn ([10]; 125 g ai/ha): 80; Plant response rating, Foxtail, Giant ([11]; 125 g ai/ha): 60; Plant response rating, Wheat ([13]; 125 g ai/ha): 60; Plant response rating, Barnyardgrass ([14]; 125 g ai/ha): 90
Cc1cc(C)c(C2=NOC3(C2)CC(C)OC(C)C3)cc1NS(=O)(=O)C(F)(F)F (single isomer, unassigned) [Compound 173]	90	90	80	90	80	90	100	90	90	90	90	60	80	90	60	90	70	90	100	100	Plant response rating, Kochia ([2]; 125 g ai/ha): 50; Plant response rating, Ragweed ([3]; 125 g ai/ha): 80; Plant response rating, Ryegrass, Italian ([4]; 125 g ai/ha): 70; Plant response rating, Pigweed ([6]; 125 g ai/ha): 80; Plant response rating, Galium ([8]; 125 g ai/ha): 90; Plant response rating, Blackgrass ([9]; 125 g ai/ha): 50; Plant response rating, Corn ([10]; 125 g ai/ha): 70; Plant response rating, Foxtail, Giant ([11]; 125 g ai/ha): 90; Plant response rating, Wheat ([13]; 125 g ai/ha): 70; Plant response rating, Barnyardgrass ([14]; 125 g ai/ha): 80
CCc1cc(-c2cc(N(S(=O)(=O)C(F)(F)F)S(=O)(=O)C(F)(F)F)c(C)cc2C)c(=O)n(C)n1 [Compound 28]	0	30	–	–	–	50	90	–	60	100	–	–	–	–	70	90	–	–	30	90	Plant response rating, Kochia [2, 16]: 0; Plant response rating, Kochia [2, 17]: 30; Plant response rating, Ragweed [3, 16]: 20; Plant response rating, Ragweed [3, 17]: 80; Plant response rating, Ryegrass, Italian [4, 16]: 0; Plant response rating, Ryegrass, Italian [4, 17]: 0; Plant response rating, Pigweed [6, 16]: 0; Plant response rating, Pigweed [6, 17]: 40; Plant response rating, Galium [8, 16]: 20; Plant response rating, Galium [8, 17]: 70; Plant response rating, Blackgrass [9, 16]: 0; Plant response rating, Blackgrass [9, 17]: 30; Plant response rating, Corn [10, 16]: 0; Plant response rating, Corn [10, 17]: 0; Plant response rating, Foxtail, Giant [11, 16]: 0; Plant response rating, Foxtail, Giant [11, 17]: 10; Plant response rating, Wheat [13, 16]: 30; Plant response rating, Wheat [13, 17]: 50; Plant response rating, Barnyardgrass [14, 16]: 0; Plant response rating, Barnyardgrass [14, 17]: 80
Cc1cc(C)c(C2=NOC(C(C)(C)C)C2)cc1NS(=O)(=O)C(F)(F)F (stereo not drawn) [Compound 108]	20	60	80	80	70	90	100	60	70	100	90	50	50	30	80	90	70	90	80	100	Plant response rating, Kochia [2, 16]: 30; Plant response rating, Ragweed [3, 16]: 40; Plant response rating, Ryegrass, Italian [4, 16]: 0; Plant response rating, Pigweed [6, 16]: 0; Plant response rating, Galium [8, 16]: 70; Plant response rating, Blackgrass [9, 16]: 0; Plant response rating, Corn [10, 16]: 0; Plant response rating, Foxtail, Giant [11, 16]: 0; Plant response rating, Wheat [13, 16]: 30; Plant response rating, Barnyardgrass [14, 16]: 20
